Laboratory results: ChEMBL document CHEMBL1697781, “Assessment of the health effects of chemicals in humans: II. Construction of an adverse effects database for QSAR modeling” (Curr Drug Discov Technol, 2004)

Tests used:
Conditions in all cases: human; call rule not given here
[1] = tested on: Hepatotoxicity; assay: FDA HLAED, serum glutamic oxaloacetic transaminase (SGOT) increase
[2] = tested on: Hepatotoxicity; assay: FDA HLAED, serum glutamic pyruvic transaminase (SGPT) increase
[3] = tested on: Hepatotoxicity; assay: FDA HLAED, lactate dehydrogenase (LDH) increase
[4] = tested on: Hepatotoxicity; assay: FDA HLAED, alkaline phosphatase increase
[5] = tested on: Hepatotoxicity; assay: FDA HLAED, liver enzyme composite activity
[6] = tested on: Hepatotoxicity; assay: FDA HLAED, gamma-glutamyl transferase (GGT) increase
Throughout, for GGT Increase - Index Value: reference of the scale not given here.
Throughout, for LDH Increase - Index Value: reference of the scale not given here.

SMILES	SGOT Increase - Activity Score [1]	SGOT Increase - Index Value [1]	SGOT Increase - Number of Reports [1]	SGPT Increase - Activity Score [2]	SGPT Increase - Index Value [2]	SGPT Increase - Number of Reports [2]	LDH Increase - Activity Score [3]	LDH Increase - Index Value [3]	LDH Increase - Number of Reports [3]	Alkaline Phosphatase Increase - Activity Score [4]	Alkaline Phosphatase Increase - Index Value [4]	Alkaline Phosphatase Increase - Number of Reports [4]	Composite Activity - Active [5]	Composite Activity - Marginal [5]	Composite Activity - Score [5]	GGT Increase - Activity Score [6]	GGT Increase - Index Value [6]	GGT Increase - Number of Reports [6]	further results
CC(C)(C)c1ccc(C(O)CCCN2CCC(C(O)(c3ccccc3)c3ccccc3)CC2)cc1 (configuration not stated) [TERFENADINE]	Inactive	0.7	>= 4	Inactive	0.7	>= 4	Inactive	0.2	< 4	Inactive	0.6	>= 4	0	0	Inactive	Inactive	0.1	< 4	–
CC1=C(/C=C/C(C)=C/C=C/C(C)=C/C(=O)O)C(C)(C)CCC1 [TRETINOIN]	Inactive	0	< 4	Inactive	0	< 4	Inactive	1	< 4	Inactive	1	< 4	0	0	Inactive	Inactive	1	< 4	–
Fc1ccccc1C1=NCC(=S)N(CC(F)(F)F)c2ccc(Cl)cc21 [QUAZEPAM]	Inactive	0	< 4	Inactive	0	< 4	Inactive	0	< 4	Inactive	0	< 4	0	0	Inactive	Inactive	0	< 4	–
CC(=O)OCC1=C(C(=O)O)N2C(=O)[C@@H](NC(=O)CSc3ccncc3)[C@H]2SC1 [CEPHAPIRIN]	Inactive	0	< 4	Inactive	0	< 4	Inactive	0	< 4	Inactive	0	< 4	0	0	Inactive	Inactive	0	< 4	–
CNCCC(Oc1ccc(C(F)(F)F)cc1)c1ccccc1 (configuration not stated) [FLUOXETINE]	Active	9.6	>= 4	Active	8.7	>= 4	Marginally Active	3.2	>= 4	Active	4.7	>= 4	3	2	Active	Marginally Active	3.3	>= 4	–
CN[C@H]1CC[C@@H](c2ccc(Cl)c(Cl)c2)c2ccccc21 [SERTRALINE]	Inactive	2.7	>= 4	Inactive	2.1	>= 4	Inactive	0.9	>= 4	Inactive	2	>= 4	–	–	–	Inactive	2	>= 4	Composite Activity - Active ([5]; Liver): 0; Composite Activity - Marginal ([5]; Liver): 0; Composite Activity - Score ([5]; Liver): Inactive
CC(C)N1CCN(c2ccc(OCC3COC(Cn4cncn4)(c4ccc(Cl)cc4Cl)O3)cc2)CC1 (configuration not stated) [TERCONAZOLE]	Inactive	0	< 4	Inactive	0	< 4	Inactive	0	< 4	Inactive	0	< 4	0	0	Inactive	Inactive	0	< 4	–
COc1cc([C@@H]2c3cc4c(cc3[C@H](O)[C@H]3COC(=O)[C@H]23)OCO4)cc(OC)c1OC [PODOFILOX]	Inactive	0	< 4	Inactive	0	< 4	Inactive	0	< 4	Inactive	0	< 4	0	0	Inactive	Inactive	0	< 4	–
CCN(CC)CCNC(=O)c1ccc(N)cc1 [PROCAINAMIDE]	Inactive	0	< 4	Inactive	0	< 4	Inactive	0	< 4	Inactive	0	< 4	0	0	Inactive	Inactive	0	< 4	–
